From patent publication US20240066131A1 (Protagonist Therapeutics, Inc., priority 2020, published 2024) come the findings set out here.

SMILES strings stand for the structures. Starred links: 1 amine or outer side, 2 acyl side, 3 side chain; linkers in the order of their positions; H or OH if unused. Non-standard residues stand in square brackets, D forms with d. Residues, ends and D or L forms follow the SMILES beside them. Groups on a side chain read outwards from the residue. *: point of attachment. C18 diacid = O=C(O)CCCCCCCCCCCCCCCCC(=O)*; Dip = N[C@H](C(=O)O)C(c1ccccc1)c1ccccc1; γGlu = O=C(O)[C@H](CCC(=O)[*:2])N[*:1]; His(τ-Me) = Cn1cnc(C[C@H](N)C(=O)O)c1; Gly(NCH2CH2Ph) = O=C(O)CNCCc1ccccc1; Palmitoyl = CCCCCCCCCCCCCCCC(=O)*; Myristoyl = CCCCCCCCCCCCCC(=O)*; β3hF = N[C@H](CC(=O)O)Cc1ccccc1; NMeK = CN[C@@H](CCCCN)C(=O)O; Isovaleryl = CC(C)CC(=O)*; AEEA = NCCOCCOCC(=O)O; NHBn = c1ccc(CN*)cc1; Ahx = NCCCCCC(=O)O

In the first test the target is T1, ferroportin (Homo sapiens, UniProt Q9NP59).
T1 sequence (Q9NP59 1-571): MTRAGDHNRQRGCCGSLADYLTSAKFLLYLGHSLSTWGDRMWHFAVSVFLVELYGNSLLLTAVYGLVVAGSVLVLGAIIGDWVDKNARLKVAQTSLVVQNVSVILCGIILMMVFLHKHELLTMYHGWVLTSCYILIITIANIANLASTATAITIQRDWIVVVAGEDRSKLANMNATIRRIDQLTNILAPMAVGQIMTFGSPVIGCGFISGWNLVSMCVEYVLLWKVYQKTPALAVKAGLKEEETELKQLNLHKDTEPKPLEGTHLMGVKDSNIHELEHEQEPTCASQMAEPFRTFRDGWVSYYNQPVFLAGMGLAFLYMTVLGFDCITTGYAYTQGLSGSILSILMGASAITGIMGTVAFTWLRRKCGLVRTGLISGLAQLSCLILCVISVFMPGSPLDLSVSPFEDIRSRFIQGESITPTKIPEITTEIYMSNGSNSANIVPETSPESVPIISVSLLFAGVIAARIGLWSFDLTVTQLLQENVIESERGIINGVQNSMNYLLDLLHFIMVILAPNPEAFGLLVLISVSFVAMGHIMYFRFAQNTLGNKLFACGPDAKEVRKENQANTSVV
Put plainly: FPN activity assay: internalization/degradation of ferroportin-GFP in stably transfected HEK293 cells (loss of GFP fluorescence). The test is classed as cell-based. The note with it: Table 6A; read-out: FPN EC50. Here is the method: Following internalization, the ferroporin protein is degraded.
A retro inverse peptide is a peptide with a reversed sequence in all D amino acids. An example is that Hy-Glu-Thr-His-NH2 becomes Hy-DHis-DThr-DGlu-NH2. The EC50 of these reference compounds for ferroportin internalization/degradation was determined according to the FPN activity assay described above. These peptides served as control standards.
With `CC[C@H](C)[C@H](NC(=O)[C@H](C)NC(=O)[C@@H]1CCCN1C(=O)[C@@H](NC(=O)[C@H](Cc1c[nH]cn1)NC(=O)[C@@H](NC(=O)[C@H](CCC(=O)O)NC(=O)CC(C)C)[C@@H](C)O)C(c1ccccc1)c1ccccc1)C(=O)N[C@@H](CCCCNC(C)=O)C(N)=O` [compound 12] (Isovaleryl-ETH[Dip]PAIK(Ac)-NH2), the DC50 was found to be 1040 nM.

Take `CCCCCCCCCCCCCCCC(=O)NCCCCCC(=O)NCCCC[C@H](NC(=O)C[C@H](Cc1ccccc1)NC(=O)[C@@H](CCCCN)NC(=O)[C@@H](NC(=O)[C@H](CO)NC(=O)[C@@H]1CCCN1C(=O)[C@@H](NC(=O)[C@H](Cc1c[nH]cn1)NC(=O)[C@@H](NC(=O)[C@H](CCC(=O)O)NC(=O)CC(C)C)[C@@H](C)O)C(c1ccccc1)c1ccccc1)[C@@H](C)CC)C(N)=O` [compound 20] (Isovaleryl-ETH[Dip]PSI[dK][β3hF]K([Ahx-Palmitoyl])-NH2): the DC50 is 46.3 nM.

`CCCCCCCCCCCCCCCC(=O)NCCCCCC(=O)NCCCC[C@H](NC(=O)[C@@H](NC(=O)[C@H](C)NC(=O)[C@@H]1CCCN1C(=O)[C@@H](NC(=O)[C@H](Cc1c[nH]cn1)NC(=O)[C@@H](NC(=O)[C@H](CCC(=O)O)NC(=O)CC(C)C)[C@@H](C)O)C(c1ccccc1)c1ccccc1)[C@@H](C)CC)C(=O)N(CCc1ccccc1)CC(N)=O` [compound 93] (Isovaleryl-ETH[Dip]PAIK([Ahx-Palmitoyl])[Gly(NCH2CH2Ph)]-NH2): the DC50 was determined as 31.9 nM.

Consider `CCCCCCCCCCCCCCCC(=O)NCCCCCC(=O)NCCCC[C@H](NC(=O)C[C@H](Cc1ccccc1)NC(=O)[C@H](CCCCN)N(C)C(=O)[C@@H](NC(=O)[C@H](C)NC(=O)[C@@H]1CCCN1C(=O)[C@@H](NC(=O)[C@H](Cc1c[nH]cn1)NC(=O)[C@@H](NC(=O)[C@H](CC(C)C)NC(=O)CC(C)C)[C@@H](C)O)C(c1ccccc1)c1ccccc1)[C@@H](C)CC)C(N)=O` [compound 46] (Isovaleryl-LTH[Dip]PAI[NMeK][β3hF]K([Ahx-Palmitoyl])-NH2), for which the DC50 turned out to be 103 nM.

For `CC[C@H](C)[C@H](NC(=O)[C@H](C)NC(=O)[C@@H]1CCCN1C(=O)[C@@H](NC(=O)[C@H](Cc1cn(C)cn1)NC(=O)[C@@H](NC(=O)[C@H](CCC(=O)O)NC(=O)CC(C)C)[C@@H](C)O)C(c1ccccc1)c1ccccc1)C(=O)N[C@@H](CCCCNC(C)=O)C(=O)N[C@H](CC(=O)N[C@H](CCCCN)C(=O)N[C@@H](C)C(N)=O)Cc1ccccc1` [compound 36] (Isovaleryl-ET[His(τ-Me)][Dip]PAIK(Ac)[β3hF][dK]A-NH2), the DC50 was above 3000 nM.

The same test, now with this note: ferroportin-GFP HEK293 cells, compound incubated at least 18 hours; read-out: FPN IC50.
On to `CC(C)CC(=O)N[C@@H](CC(C)C)C(=O)N[C@H](C(=O)N[C@@H](Cc1c[nH]cn1)C(=O)N[C@H](C(=O)N[C@@H](CCCCNC(=O)COCCOCCNC(=O)COCCOCCNC(=O)CC[C@H](NC(=O)CCCCCCCCCCCCCCCCC(=O)O)C(=O)O)C(=O)NCc1ccccc1)C(c1ccccc1)c1ccccc1)[C@@H](C)O` [compound 227] (Isovaleryl-LTH[Dip]K([AEEA-AEEA-γGlu-C18 diacid])-NHBn), for which the DC50 was above 3000 nM.

Take `CCCCCCCCCCCCCC(=O)NCCCCCC(=O)NCCCC[C@H](NC(=O)[C@@H](NC(=O)[C@H](C)NC(=O)[C@@H]1CCCN1C(=O)[C@H](Cc1ccccc1)NC(=O)[C@H](Cc1c[nH]cn1)NC(=O)[C@@H](NC(=O)[C@H](CCC(=O)O)NC(=O)CC(C)C)[C@@H](C)O)[C@@H](C)CC)C(=O)N[C@@H](Cc1ccccc1)C(=O)N[C@@H](CCC(=O)O)C(=O)N1CCC[C@H]1C(=O)N[C@@H](CCCNC(=N)N)C(=O)N[C@@H](CO)C(=O)N[C@@H](CCCCN)C(=O)NCC(=O)N[C@@H](C)C(=O)N[C@H](CCCCN)C(N)=O` [compound 245] (Isovaleryl-ETHFPAIK([Ahx-Myristoyl])FEPRSKGA[dK]-NH2): the DC50 was found to be 1160 nM.
